Measured values: BigSolDB 2.1

Cc1c(-c2ccccc2)oc2c(C(=O)OCCN3CCCCC3)cccc2c1=O.Cl
solubility (mole fraction)
Details	278.15 K	283.15 K	288.15 K	293.15 K	298.15 K	303.15 K	308.15 K	313.15 K	318.15 K	323.15 K
in 2-ethoxyethanol	0.000121	0.000162	0.000173	0.000211	0.000252	0.000309	0.000362	0.00044	0.000533	0.000636
in 2-methoxyethanol	0.000431	0.000521	0.000578	0.000675	0.000788	0.000931	0.00107	0.00129	0.00152	0.00182
in 2-propoxyethanol	0.000193	0.000212	0.000255	0.000303	0.000355	0.000413	0.000509	0.000593	0.000704	0.000881
in DMSO	–	–	–	0.000626	0.000775	0.000911	0.00107	0.00129	0.00152	0.0018
in NMP	0.000254	0.000334	0.00039	0.00047	0.000548	0.000646	0.000768	0.000919	0.00109	0.0013
in acetonitrile	2.88e-05	3.71e-05	4.2e-05	4.95e-05	6.13e-05	7.58e-05	8.98e-05	0.000112	0.000141	0.000174
in ethanol	8.81e-05	9.89e-05	0.000117	0.000143	0.000182	0.00022	0.000284	0.000364	0.000452	0.000565
in ethylene glycol	0.000868	0.00115	0.00136	0.00161	0.002	0.00236	0.00284	0.00347	0.00415	0.005
in methanol	0.000529	0.000637	0.000808	0.000961	0.00116	0.0014	0.00169	0.00207	0.00255	0.00317
in n-butanol	3.52e-05	4.51e-05	6.1e-05	9.1e-05	0.000124	0.000171	0.000223	0.000303	0.000374	0.000468
in n-propanol	2.87e-05	3.76e-05	4.58e-05	6.56e-05	0.000107	0.000142	0.000188	0.000252	0.000331	0.000425
in water	0.000219	0.00026	0.000301	0.000361	0.000442	0.000526	0.000629	0.000757	0.00092	0.00114
